Counter-ions that a name gives are not always drawn.
Molecular target: recombinant Human Phosphodiesterase B2 (PDE4B2) (Homo sapiens, UniProt Q07343)
Assay: Human Phosphodiesterase B2 Radiometric Assay
Type: biochemical
Details: 0.1 μg/mL recombinant PDE4B2; preincubated at 30 C for 30 min; [3H]cyclic AMP 8 nM, stopped after 20 min; yttrium silicate SPA beads; read-out: PDE4B2 pIC50 (converted)
Description: Human Phosphodiesterase B2 Radiometric Assay
The assay uses recombinant Human Phosphodiesterase B2 (PDE4B2) produced in house (PrAZL0163), stored at −20° C. This assay is based on the observation that 5′AMP, the product of the reaction catalysed by PDE4, binds preferentially to yttrium silicate SPA beads (Amersham Biosciences, UK) compared to the substrate, cAMP. Compounds at the appropriate concentration were preincubated at 30 C for 30 min with an assay buffer containing 50 mM HEPES (pH 7.5), 8.3 mM MgCl2, 1.7 mM EGTA, 0.01% (w/v) Brij®35 and 0.1 μg/mL recombinant PDE4B2. The reaction was started by the addition of [3H]cyclic AMP to give a final concentration of 8 nM, and was stopped 20 min after the addition of the substrate by the addition of yttrium silicate SPA beads containing 18 mM Zn SO4. Bound […] was measured using a Topcount NXT (Packard Bioscience, UK). pIC50 values (presented in Table 2) were determined using Xlfit3 curve fitting, using model 205.

recombinant Human Phosphodiesterase B2 (PDE4B2), sequence (Q07343 1-564 isoform Q07343-2): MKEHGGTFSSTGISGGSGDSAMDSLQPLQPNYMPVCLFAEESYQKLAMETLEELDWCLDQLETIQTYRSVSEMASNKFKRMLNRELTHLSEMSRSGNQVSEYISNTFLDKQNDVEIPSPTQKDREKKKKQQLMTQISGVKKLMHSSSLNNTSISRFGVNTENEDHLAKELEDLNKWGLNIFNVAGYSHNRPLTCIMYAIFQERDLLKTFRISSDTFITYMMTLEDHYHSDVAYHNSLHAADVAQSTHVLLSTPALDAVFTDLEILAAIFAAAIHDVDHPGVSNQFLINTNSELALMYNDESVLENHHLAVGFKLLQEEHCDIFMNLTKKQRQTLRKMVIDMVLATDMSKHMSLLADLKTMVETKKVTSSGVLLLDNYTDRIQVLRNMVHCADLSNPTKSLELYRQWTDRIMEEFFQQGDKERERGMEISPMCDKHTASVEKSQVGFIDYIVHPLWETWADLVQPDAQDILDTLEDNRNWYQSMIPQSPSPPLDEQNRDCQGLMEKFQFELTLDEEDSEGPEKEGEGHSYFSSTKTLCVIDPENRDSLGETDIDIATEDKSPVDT

SMILES | IC50 [pM]
Cc1cccc(C(=O)N[C@H]2CC[C@@H](NC(=O)c3cc(F)cnc3Oc3cccc(-c4ccc(CCCNCCCO)cc4)c3)CC2)n1 [Example 158, N-((1s,4s)-4-(5-Fluoro-2-(4′-(3-(3-hydroxypropylamino)propyl)biphenyl-3-yloxy)nicotinamido)cyclohexyl)-6-methylpicolinamide] | 31.6
O=C(N[C@H]1CC[C@@H](NC(=O)c2cc(F)cnc2Oc2cccc(-c3ccc(CCCN4CCNCC4)cc3)c2)CC1)c1csc(CO)n1 [Example 141, N-((1s,4s)-4-(5-fluoro-2-(4′-(3-(piperazin-1-yl)propyl)biphenyl-3-yloxy)nicotinamido)cyclohexyl)-2-(hydroxymethyl)thiazole-4-carboxamide] | 63.1
Cc1cccc2nc(C(=O)N[C@H]3CC[C@@H](NC(=O)c4cc(F)cnc4Oc4cccc(-c5ccc(O)cc5CN5CCOCC5)c4)CC3)cn12 [Example 18, N-((1s,4s)-4-(5-fluoro-2-(4′-hydroxy-2′-(morpholinomethyl)biphenyl-3-yloxy)nicotinamido)cyclohexyl)-5-methylimidazo[1,2-a]pyridine-2-carboxamide] | 15.8
Cc1cccc2nc(C(=O)N[C@H]3CC[C@@H](NC(=O)c4cc(F)cnc4Oc4cccc(-c5cccc(CN6CCNCC6)c5)c4)CC3)cn12 [Example 100, N-((1s,4s)-4-(5-fluoro-2-(3′-(piperazin-1-ylmethyl)biphenyl-3-yloxy)nicotinamido)cyclohexyl)-5-methylimidazo[1,2-a]pyridine-2-carboxamide] | 158
Cc1nc(C(=O)N[C@H]2CC[C@@H](NC(=O)c3cc(F)cnc3Oc3cccc(-c4ccc(CCN5CCC(N6CCCC6)CC5)cc4)c3)CC2)cs1 [Example 112, N-((1s,4s)-4-(5-fluoro-2-(4′-(2-(4-(pyrrolidin-1-yl)piperidin-1-yl)ethyl)biphenyl-3-yloxy)nicotinamido)cyclohexyl)-2-methylthiazole-4-carboxamide] | 39.8
O=C(N[C@H]1CC[C@@H](NC(=O)c2cc(F)cnc2Oc2cccc(-c3ccc(CCCN4CCCNCC4)cc3)c2)CC1)c1cc2n(n1)CCCC2 [Example 127, N-((1s,4s)-4-(2-(4′-(3-(1,4-diazepan-1-yl)propyl)biphenyl-3-yloxy)-5-fluoronicotinamido)cyclohexyl)-4,5,6,7-tetrahydropyrazolo[1,5-a]pyridine-2-carboxamide] | 79.4
O=C(N[C@H]1CC[C@@H](NC(=O)c2cc(F)cnc2Oc2cccc(-c3ccc(CN4CCNCC4)cc3)c2)CC1)c1cc2n(n1)CCCC2 [Example 114, N-((1s,4s)-4-(5-fluoro-2-(4′-(piperazin-1-ylmethyl)biphenyl-3-yloxy)nicotinamido)cyclohexyl)-4,5,6,7-tetrahydropyrazolo[1,5-a]pyridine-2-carboxamide] | 158
Cc1cc(CN(Cc2cc(C)n(C)n2)[C@H]2CC[C@@H](NC(=O)c3cc(F)cnc3Oc3cccc(-c4ccc(O)cc4CN4CCOCC4)c3)CC2)nn1C [Example 4, N-((1s,4s)-4-(bis((1,5-dimethyl-1H-pyrazol-3-yl)methyl)amino)cyclohexyl)-5-fluoro-2-(4′-hydroxy-2′-(morpholinomethyl)biphenyl-3-yloxy)nicotinamide trifluoroacetate] | 63100
O=C(N[C@H]1CC[C@@H](NC(=O)c2cc(F)cnc2Oc2cccc(-c3ccc(CCCN4CCNCC4)cc3)c2)CC1)c1cc2n(n1)CCCC2 [Example 118, N-((1s,4s)-4-(5-fluoro-2-(4′-(3-(piperazin-1-yl)propyl)biphenyl-3-yloxy)nicotinamido)cyclohexyl)-4,5,6,7-tetrahydropyrazolo[1,5-a]pyridine-2-carboxamide] | 39.8
Cc1cccc2nc(CN[C@H]3CC[C@@H](NC(=O)c4cc(F)cnc4Oc4cccc(-c5ccc(O)cc5CN5CCOCC5)c4)CC3)cn12 [Example 8, 5-fluoro-2-(4′-hydroxy-2′-(morpholinomethyl)biphenyl-3-yloxy)-N-((1s,4s)-4-((5-methylimidazo[1,2-a]pyridin-2-yl)methylamino)cyclohexyl)nicotinamide] | 631
C[C@@H]1CN(CCc2ccc(-c3cccc(Oc4ncc(F)cc4C(=O)N[C@H]4CC[C@@H](NC(=O)c5cnc6ccccc6n5)CC4)c3)cc2)C[C@H](C)N1 [Example 99, N-((1s,4s)-4-(2-(4′-(2-((3S,5R)-3,5-dimethylpiperazin-1-yl)ethyl)biphenyl-3-yloxy)-5-fluoronicotinamido)cyclohexyl)quinoxaline-2-carboxamide] | 79.4

More lines, now with the values ahead:

IC50 [pM] | SMILES
158 | C[C@@H]1CN(Cc2cc(-c3cccc(Oc4ncc(F)cc4C(=O)N[C@H]4CC[C@@H](NC(=O)c5cn6cc(F)ccc6n5)CC4)c3)ccc2O)C[C@H](C)N1 [Example 84, N-((1s,4s)-4-(2-(3′-(((3S,5R)-3,5-dimethylpiperazin-1-yl)methyl)-4′-hydroxybiphenyl-3-yloxy)-5-fluoronicotinamido)cyclohexyl)-6-fluoroimidazo[1,2-a]pyridine-2-carboxamide]
63.1 | Cc1nc(C(=O)N[C@H]2CC[C@@H](NC(=O)c3cc(F)cnc3Oc3cccc(-c4ccc(CN5C[C@@H](C)N[C@@H](C)C5)cc4)c3)CC2)cs1 [Example 54, N-((1s,4s)-4-(2-(4′-(((3S,5R)-3,5-dimethylpiperazin-1-yl)methyl)biphenyl-3-yloxy)-5-fluoronicotinamido)cyclohexyl)-2-methylthiazole-4-carboxamide]
20 | C[C@@H]1CN(Cc2ccc(-c3cccc(Oc4ncc(F)cc4C(=O)N[C@H]4CC[C@@H](NC(=O)c5cc(C(F)(F)F)n(C)n5)CC4)c3)c(CN3CCSCC3)c2)C[C@H](C)N1 [Example 191, 2-(4′-(((3S,5R)-3,5-dimethylpiperazin-1-yl)methyl)-2′-(thiomorpholinomethyl)biphenyl-3-yloxy)-5-fluoro-N-((1s,4s)-4-(1-methyl-5-(trifluoromethyl)-1H-pyrazole-3-carboxamido)cyclo-hexyl)nicotinamide]
39.8 | CC(=O)N1CCN(Cc2cc(O)ccc2-c2cccc(Oc3ncc(F)cc3C(=O)N[C@H]3CC[C@@H](NC(=O)c4csc(C)n4)CC3)c2)CC1 [Example 29, N-((1s,4s)-4-(2-(2′-((4-acetylpiperazin-1-yl)methyl)-4′-hydroxybiphenyl-3-yloxy)-5-fluoronicotinamido)cyclohexyl)-2-methylthiazole-4-carboxamide]
251 | C[C@@H]1CN(Cc2cc(-c3cccc(Oc4ncc(F)cc4C(=O)N[C@H]4CC[C@@H](NC(=O)c5cn6c(n5)CCCC6)CC4)c3)ccc2O)C[C@H](C)N1 [Example 91, N-((1s,4s)-4-(2-(3′-(((3S,5R)-3,5-dimethylpiperazin-1-yl)methyl)-4′-hydroxybiphenyl-3-yloxy)-5-fluoronicotinamido)cyclohexyl)-5,6,7,8-tetrahydroimidazo[1,2-a]pyridine-2-carboxamide]
100 | O=C(N[C@H]1CC[C@@H](NC(=O)c2cc(F)cnc2Oc2cccc(-c3ccc(O)cc3CN3CCOCC3)c2)CC1)c1csc(C(F)(F)F)n1 [Example 36, N-((1s,4s)-4-(5-fluoro-2-(4′-hydroxy-2′-(morpholinomethyl)biphenyl-3-yloxy)nicotinamido)cyclohexyl)-2-(trifluoromethyl)thiazole-4-carboxamide]
100 | Cc1nc(C(=O)N[C@H]2CC[C@@H](NC(=O)c3cc(F)cnc3Oc3cccc(-c4ccc(CN5C[C@@H](C)N[C@@H](C)C5)c(O)c4)c3)CC2)cs1 [Example 98, N-((1s,4s)-4-(2-(4′-(((3S,5R)-3,5-dimethylpiperazin-1-yl)methyl)-3′-hydroxybiphenyl-3-yloxy)-5-fluoronicotinamido)cyclohexyl)-2-methylthiazole-4-carboxamide]
79.4 | Cc1cccc(C(=O)N[C@H]2CC[C@@H](NC(=O)c3cc(F)cnc3Oc3cccc(-c4ccc(O)c(CN5C[C@@H](C)N[C@@H](C)C5)c4)c3)CC2)n1 [Example 89, N-((1s,4s)-4-(2-(3′-(((3S,5R)-3,5-dimethylpiperazin-1-yl)methyl)-4′-hydroxybiphenyl-3-yloxy)-5-fluoronicotinamido)cyclohexyl)-6-methylpicolinamide]
50.1 | Cc1cc(C(=O)N[C@H]2CC[C@@H](NC(=O)c3cc(F)cnc3Oc3cccc(-c4ccc(CCN5CCN(C)CC5)cc4)c3)CC2)nn1C [Example 167, N-((1s,4s)-4-(1,5-Dimethyl-1H-pyrazole-3-carboxamido)cyclohexyl)-5-fluoro-2-(4′-(2-(4-methylpiperazin-1-yl)ethyl)biphenyl-3-yloxy)nicotinamide]
50.1 | O=C(N[C@H]1CC[C@@H](NC(=O)c2cc(F)cnc2Oc2cccc(-c3ccc(O)cc3CN3CCSCC3)c2)CC1)c1cn2cc(F)ccc2n1 [Example 21, 6-fluoro-N-((1s,4s)-4-(5-fluoro-2-(4′-hydroxy-2′-(thiomorpholinomethyl)biphenyl-3-yloxy)nicotinamido)cyclohexyl)imidazo[1,2-a]pyridine-2-carboxamide]
251 | COc1c(CN2C[C@@H](C)N[C@@H](C)C2)cccc1-c1cccc(Oc2ncc(F)cc2C(=O)N[C@H]2CC[C@@H](NC(=O)c3cc(C)n(C)n3)CC2)c1 [Example 106, N-((1s,4s)-4-(1,5-dimethyl-1H-pyrazole-3-carboxamido)cyclohexyl)-2-(3′-(((3S,5R)-3,5-dimethylpiperazin-1-yl)methyl)-2′-methoxybiphenyl-3-yloxy)-5-fluoronicotinamide]

Reference: patent publication US8273774B2, “Phenoxypyridinylamide compounds” (AstraZeneca AB, priority 2008, dated 2012)
